# Values of other authors, collected in patent US9169190B2, “Methods for making retinoids and uses thereof” (The UAB Research Foundation, priority 2004, dated 2015).
# Assays:
# [1] = system: mammary cancers; conditions: compared with 9cRA
# [2] = system: juvenile myelomonocytic leukemia (JMML); conditions: children with JMML
# [3] = system: acute promyelocytic leukemia (APL); conditions: patients with APL
# [4] = system: MNU-induced mammary cancers; conditions: added to the diet of rats
compound,measurement,setting,value
CC(=C/C=C/C(C)=C/C(=O)O)/C=C1\CCCc2ccccc21 [9cUAB30],chemopreventive efficacy of mammary cancers relative to 9cRA,[1],comparable
same,toxicity relative to 9cRA,[1],less toxic
CC1=C(/C=C/C(C)=C/C=C/C(C)=C\C(=O)O)C(C)(C)CCC1 [(13Z)-RA],children in whom excessive myeloproliferation is effectively controlled,[2],up to 50%
"CC1=C(/C=C/C(C)=C/C=C/C(C)=C/C(=O)O)C(C)(C)CCC1 [(all-E)-RA, All-trans-retinoic acid]",complete remission rate,[3],90%
CC1=C(/C=C/C(C)=C\C=C\C(C)=C\C(=O)O)C(C)(C)CCC1 [9cRA],reduction of the number of MNU-induced mammary cancers,[4],92%
